In this experiment the target is T1, human PPARgamma (Homo sapiens, UniProt P37231).
T1 construct: amino acids I152-Y475; expressed in transfected cells; host or cells: HEK cells, transiently transfected (pcDNA3-GAL4-humanPPARgammaLBD)
T1 sequence (P37231 182-477 isoform P37231-2 limits assumed): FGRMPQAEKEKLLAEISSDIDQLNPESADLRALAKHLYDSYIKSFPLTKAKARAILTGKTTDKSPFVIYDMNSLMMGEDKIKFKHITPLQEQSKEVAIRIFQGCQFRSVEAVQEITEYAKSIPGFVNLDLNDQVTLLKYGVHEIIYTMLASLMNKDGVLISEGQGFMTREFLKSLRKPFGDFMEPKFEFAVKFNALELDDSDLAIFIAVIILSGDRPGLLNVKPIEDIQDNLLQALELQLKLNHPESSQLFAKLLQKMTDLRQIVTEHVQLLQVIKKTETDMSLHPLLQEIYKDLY
In words: Cellular PPARgamma assay (transiently transfected HEK cells, luciferase reporter). In kind it is cell-based. The settings on record: HEK cells transiently transfected with GAL4-humanPPARgammaLBD. From the text: A transient transfection system is employed to determine the cellular PPARgamma activity of PPAR agonists. It is based on the use of a luciferase reporter plasmid (pGL3basic-5xGAL4-TK) and of a PPARgamma expression plasmid (pcDNA3-GAL4-humanPPARgammaLBD). Both plasmids are transiently transfected into human embryonic kidney cells (HEK cells). There is then expression in these cells of the fusion protein GAL4-humanPPARgammaLBD which binds to the GAL4 binding sites of the reporter plasmid. In the presence of a PPARgamma-active ligand, the activated fusion protein GAL4-humanPPARgammaLBD induces expression of the luciferase reporter gene, which can be detected in the form of a chemiluminescence signal after addition of a luciferase substrate. As a difference from the stably transfected PPARalpha reporter cell line, in the cellular PPARgamma assay the two components (luciferase reporter plasmid and PPARgamma expression plasmid) are transiently transfected into HEK cells because stable and permanent expression of the PPARgamma fusion protein is cytotoxic.
The luciferase reporter plasmid pGL3basic-5xGAL4-TK is based on the vector pGL3basic from Promega. The reporter plasmid is prepared by cloning five binding sites of the yeast transcription factor GAL4 (each binding site with the sequence 5′-CTCGGAGGACAGTACTCCG-3′), together with a 160 bp-long thymidine kinase promoter section (Genbank Accession #AF027128) 5′-upstream into pGL3basic. 3′-downstream of the thymidine kinase promoter is the complete luciferase gene from Photinus pyralis (Genbank Accession #M15077) which is already a constituent of the plasmid pGL3basic used. The cloning and sequencing of the reporter plasmid pGL3basic-5xGAL4-TK took place in analogy to the description in Sambrook J. et. al. (Molecular cloning, Cold Spring Harbor Laboratory Press, 1989).
The PPARgamma expression plasmid pcDNA3-GAL4-humanPPARgammaLBD was prepared by first cloning the cDNA coding for amino acids 1-147 of the yeast transcription factor GAL4 (Genbank Accession #P04386) into the plasmid pcDNA3 (from Invitrogen) 3′-downstream of the cytomegalovirus promoter. Subsequently, the cDNA of the ligand-binding domain (LBD) of the human PPARgamma receptor (amino acids I152-Y475; Accession #g1480099) 3′-downstream of the GAL4 DNA binding domain. Cloning and sequencing of the PPARgamma expression plasmid pcDNA3-GAL4-humanPPARgammaLBD again took place in analogy to the description in Sambrook J. et. al. (Molecular cloning, Cold Spring Harbor Laboratory Press, 1989). Besides the luciferase reporter plasmid pGL3basic-5xGAL4-TK and the PPARgamma expression plasmid pcDNA3-GAL4-humanPPARgammaLBD, also used for the cellular PPARgamma assay are the reference plasmid pRL-CMV (from Promega) and the plasmid pBluescript SK(+) from Stratagene. All four plasmids were prepared using a plasmid preparation kit from Qiagen, which ensured a plasmid quality with a minimal endotoxin content, before transfection into HEK cells.
The activity of PPARgamma agonists is determined in a 4-day assay which is described below. Before the transfection, HEK cells are cultivated in DMEM (#41965-039, Invitrogen) which is mixed with the following additions: 10% FCS (#16000-044, Invitrogen), 1% penicillin-streptomycin solution (#15140-122, Invitrogen) and 2 mM L-glutamine (#25030-024, Invitrogen).
Firstly, solution A, a transfection mixture which contains all four plasmids previously described in addition to DMEM, is prepared. The following amounts are used to make up 3 ml of solution A for each 96 well microtiter plate for an assay: 2622 μl of antibiotic- and serum-free DMEM (#41965-039, Invitrogen), 100 μl of reference plasmid pRL-CMV (1 ng/μl), 100 μl of luciferase reporter plasmid pGL3basic-5xGAL4-TK (10 ng/μl), 100 μl of PPARgamma expression plasmid pcDNA3-GAL4-humanPPARgammaLBD (100 ng/μl) and 78 μl of plasmid pBluescript SK(+) (500 ng/μl). […]

This is an account of results in patent US7612104B2, “Bicyclic aryl-sulfonic acid [1,3,4]-thiadiazol-2-yl-amides, processes for their preparation, pharmaceutical compositions and methods for their use” (Sanofi-Aventis, priority 2005, dated 2009).

Take `CCOc1cc(C(F)(F)F)ccc1C(=O)NC1Cc2ccc(S(=O)(=O)Nc3nnc(C(C)C)s3)cc2C1` (racemic) [Example 1, 2-Ethoxy-N-[5-(5-isopropyl-[1,3,4]thiadiazol-2-ylsulfamoyl)-indan-2-yl]-4-trifluoromethyl-benzamide]: the midpoint of the response, the EC50, lay at 1 nM.
In the case of `CCOc1cc(C(F)(F)F)ccc1C(=O)NC1Cc2ccc(S(=O)(=O)Nc3nnc(C(C)C)s3)cc2C1` (single isomer, unassigned; enantiomer 1) [Example 1.1, 2-Ethoxy-N-[5-(5-isopropyl-[1,3,4]thiadiazol-2-ylsulfamoyl)-indan-2-yl]-4-trifluoromethyl-benzamide (Enantiomer 1)] it was 22 nM; in that of `CCOc1cc(C(F)(F)F)ccc1C(=O)NC1Cc2ccc(S(=O)(=O)Nc3nnc(C(C)C)s3)cc2C1` (single isomer, unassigned; enantiomer 2) [Example 1.2, 2-Ethoxy-N-[5-(5-isopropyl-[1,3,4]thiadiazol-2-ylsulfamoyl)-indan-2-yl]-4-trifluoromethyl-benzamide (Enantiomer 2)], > 10000 nM; in that of `CCOc1cc(C(F)(F)F)ccc1C(=O)N[C@H]1CCc2ccc(S(=O)(=O)Nc3nnc(C(C)C)s3)cc2C1` [Example 5, 2-Ethoxy-N-[(S)-7-(5-isopropyl-[1,3,4]thiadiazol-2-ylsulfamoyl)-1,2,3,4-tetrahydro-naphthalen-2-yl]-4-trifluoromethyl-benzamide], 100 nM.
The same measure for `CCOc1cc(C(F)(F)F)ccc1C(=O)N[C@@H]1CCc2ccc(S(=O)(=O)Nc3nnc(C(C)C)s3)cc2C1` [Example 6, 2-Ethoxi-N-[(R)-7-(5-isopropyl-[1,3,4]thiadiazol-2-ylsulfamoyl)-1,2,3,4-tetrahydro-naphthalene-2-yl]-4-trifluoromethyl-benzamide]: 200 nM; for `CCOc1cc(C(F)(F)F)sc1C(=O)NC1Cc2ccc(S(=O)(=O)Nc3nnc(C(C)C)s3)cc2C1` (stereo not drawn) [Example 11, 3-Ethoxy-5-trifluoromethyl-thiophene-2-carboxylic acid [5-(5-isopropyl-[1,3,4]thiadiazol-2-ylsulfamoyl)-indan-2-yl]-amide]: > 10000 nM.
